Source: patent US9708314B2, “Heterocyclic amide compound” (NISSAN CHEMICAL INDUSTRIES, LTD., priority 2013, dated 2017)

Columns and labels:
Assay type in all cases: in vivo
[1] = test system: Scirpus juncoides; assay: Test Example 1: herbicidal activity, application before weed generation in submerged conditions; conditions: Application herbicide amount 320 g/ha; Seventeenth Table
How it was run: (§1)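 Alluvial soil in Wagner pots flooded to 4 cm water depth; weed seeds sown and 2.5 leaf stage rice seedlings transplanted. Emulsion diluted in water applied to water surface on sowing day at stated g/ha. Greenhouse 25° C. to 30° C.; effects scored 0–5 by herbicidal ratio after three weeks.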

[2] = test system: Monochoria vaginalis; assay: as above; conditions: Application herbicide amount 320 g/ha; Seventeenth Table
How it was run: as §1

[3] = test system: Echinochloa oryzacola Vasing.; assay: as above; conditions: Application herbicide amount 320 g/ha; Seventeenth Table
How it was run: as §1

[4] = test system: directly sowed Oryza sativa; assay: Test Example 3: effect on crop by application to foliage (Wagner pot, water depth 0.1-0.5 cm); conditions: Nineteenth Table; application to foliage; application herbicide amount 320 g/ha
How it was run: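 Post-emergence foliar application at a stated g/ha rate to plants grown 14 days from seed in alluvial soil, greenhouse 25–30 °C. Visual score after 3 weeks: 0 (≤5% effect) through 5 (≥90%).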

[5] = test system: Scirpus juncoides; assay: Test Example 2: herbicidal activity, application during weed generation in submerged conditions; conditions: Eighteenth Table; application herbicide amount 320 g/ha
How it was run: (§2)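 Alluvial soil in Wagner pots flooded to 4 cm water depth; seeds sown mixed, grown in greenhouse at 25–30 °C. At one- to two-leaf stage, emulsion diluted with water to the set rate (g/ha) was applied to the water surface. Effect scored 0–5 by herbicidal ratio three weeks later.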

[6] = test system: Echinochloa oryzacola Vasing.; assay: as above; conditions: Eighteenth Table; application herbicide amount 320 g/ha
How it was run: as §2

[7] = test system: Monochoria vaginalis; assay: as above; conditions: Eighteenth Table; application herbicide amount 320 g/ha
How it was run: as §2

Row | Structure (SMILES) | B: Scirpus juncoides (herbicidal effect grade) [1] | C: Monochoria vaginalis (herbicidal effect grade) [2] | A: Echinochloa oryzicola Vasing. (herbicidal effect grade) [3] | b (effect on crop grade) [4] | B (Scirpus juncoides) herbicidal ratio grade [5] | A (Echinochloa oryzicola Vasing.) herbicidal ratio grade [6] | C (Monochoria vaginalis) herbicidal ratio grade [7]
1 | Cc1nnc(NC(=O)c2ccc(C(F)(F)F)n3c(SCC4CC4)nnc23)o1 [1-115] | 4 (Herbicidal ratio of 70% or more and less than 90%) | 3 (Herbicidal ratio of 40% or more and less than 70%) | 5 (Herbicidal ratio of 90% or more (almost completely withered)) | 0 (Herbicidal ratio of 5% or less (almost no effect)) | 3 (Herbicidal ratio of 40% or more and less than 70%) | 3 (Herbicidal ratio of 40% or more and less than 70%) | –
2 | CSCCNc1nnc2c(C(=O)Nc3nnc(C)o3)ccc(C(F)(F)F)n12 [1-130] | 0 (Herbicidal ratio of 5% or less (almost no effect)) | 0 (Herbicidal ratio of 5% or less (almost no effect)) | 1 (Herbicidal ratio of 5% or more and less than 20%) | 2 (Herbicidal ratio of 20% or more and less than 40%) | – | – | –
3 | CC(C)c1nnc2c(C(=O)Nc3nnc(C[S+](C)[O-])o3)ccc(C(F)(F)F)n12 (centres unmarked) [1-143] | 0 (Herbicidal ratio of 5% or less (almost no effect)) | 2 (Herbicidal ratio of 20% or more and less than 40%) | 0 (Herbicidal ratio of 5% or less (almost no effect)) | 0 (Herbicidal ratio of 5% or less (almost no effect)) | – | – | –
4 | O=C(Nc1nnco1)c1ccc(C(F)(F)F)n2c(C3CC3)nnc12 [1-144] | 3 (Herbicidal ratio of 40% or more and less than 70%) | 3 (Herbicidal ratio of 40% or more and less than 70%) | 5 (Herbicidal ratio of 90% or more (almost completely withered)) | – | 4 (Herbicidal ratio of 70% or more and less than 90%) | 4 (Herbicidal ratio of 70% or more and less than 90%) | 3 (Herbicidal ratio of 40% or more and less than 70%)
5 | CCC(CC)c1nnc2c(C(=O)Nc3nnco3)ccc(C(F)(F)F)n12 [1-145] | 5 (Herbicidal ratio of 90% or more (almost completely withered)) | 5 (Herbicidal ratio of 90% or more (almost completely withered)) | 5 (Herbicidal ratio of 90% or more (almost completely withered)) | – | 4 (Herbicidal ratio of 70% or more and less than 90%) | 4 (Herbicidal ratio of 70% or more and less than 90%) | 4 (Herbicidal ratio of 70% or more and less than 90%)
6 | CSCc1nnc2c(C(=O)Nc3nnco3)ccc(C(F)(F)F)n12 [1-146] | 5 (Herbicidal ratio of 90% or more (almost completely withered)) | 5 (Herbicidal ratio of 90% or more (almost completely withered)) | 5 (Herbicidal ratio of 90% or more (almost completely withered)) | – | 3 (Herbicidal ratio of 40% or more and less than 70%) | 3 (Herbicidal ratio of 40% or more and less than 70%) | 3 (Herbicidal ratio of 40% or more and less than 70%)
7 | O=C(Nc1nnco1)c1ccc(C(F)(F)F)n2c(-c3ccc(F)cc3)nnc12 [1-147] | 5 (Herbicidal ratio of 90% or more (almost completely withered)) | 5 (Herbicidal ratio of 90% or more (almost completely withered)) | 5 (Herbicidal ratio of 90% or more (almost completely withered)) | – | 2 (Herbicidal ratio of 20% or more and less than 40%) | 4 (Herbicidal ratio of 70% or more and less than 90%) | 3 (Herbicidal ratio of 40% or more and less than 70%)
8 | COc1cc(OC)cc(-c2nnc3c(C(=O)Nc4nnco4)ccc(C(F)(F)F)n23)c1 [1-148] | 5 (Herbicidal ratio of 90% or more (almost completely withered)) | 5 (Herbicidal ratio of 90% or more (almost completely withered)) | 5 (Herbicidal ratio of 90% or more (almost completely withered)) | – | 5 (Herbicidal ratio of 90% or more (almost completely withered)) | 5 (Herbicidal ratio of 90% or more (almost completely withered)) | 4 (Herbicidal ratio of 70% or more and less than 90%)
9 | COc1ccc(-c2nnc3c(C(=O)Nc4nnco4)ccc(C(F)(F)F)n23)cc1 [1-149] | 4 (Herbicidal ratio of 70% or more and less than 90%) | 3 (Herbicidal ratio of 40% or more and less than 70%) | 5 (Herbicidal ratio of 90% or more (almost completely withered)) | – | 3 (Herbicidal ratio of 40% or more and less than 70%) | 3 (Herbicidal ratio of 40% or more and less than 70%) | 2 (Herbicidal ratio of 20% or more and less than 40%)
10 | O=C(Nc1nnco1)c1ccc(C(F)(F)F)n2c(-c3ccc(Cl)nc3)nnc12 [1-150] | 5 (Herbicidal ratio of 90% or more (almost completely withered)) | 5 (Herbicidal ratio of 90% or more (almost completely withered)) | 5 (Herbicidal ratio of 90% or more (almost completely withered)) | – | 5 (Herbicidal ratio of 90% or more (almost completely withered)) | 5 (Herbicidal ratio of 90% or more (almost completely withered)) | 4 (Herbicidal ratio of 70% or more and less than 90%)
11 | COc1ccc(Cc2nnc3c(C(=O)Nc4nnco4)ccc(C(F)(F)F)n23)cc1 [1-151] | 5 (Herbicidal ratio of 90% or more (almost completely withered)) | 3 (Herbicidal ratio of 40% or more and less than 70%) | 5 (Herbicidal ratio of 90% or more (almost completely withered)) | – | 4 (Herbicidal ratio of 70% or more and less than 90%) | 4 (Herbicidal ratio of 70% or more and less than 90%) | 2 (Herbicidal ratio of 20% or more and less than 40%)
12 | C#CCN(C)c1nnc2c(C(=O)Nc3nnc(C)o3)ccc(C(F)(F)F)n12 [1-152] | 4 (Herbicidal ratio of 70% or more and less than 90%) | 3 (Herbicidal ratio of 40% or more and less than 70%) | 5 (Herbicidal ratio of 90% or more (almost completely withered)) | – | 3 (Herbicidal ratio of 40% or more and less than 70%) | 3 (Herbicidal ratio of 40% or more and less than 70%) | 3 (Herbicidal ratio of 40% or more and less than 70%)
13 | Cc1nnc(NC(=O)c2ccc(C(F)(F)F)n3c(N(C)CCC#N)nnc23)o1 [1-153] | 3 (Herbicidal ratio of 40% or more and less than 70%) | 4 (Herbicidal ratio of 70% or more and less than 90%) | 3 (Herbicidal ratio of 40% or more and less than 70%) | – | 3 (Herbicidal ratio of 40% or more and less than 70%) | 3 (Herbicidal ratio of 40% or more and less than 70%) | 3 (Herbicidal ratio of 40% or more and less than 70%)
14 | COc1ccc(N(C)c2nnc3c(C(=O)Nc4nnc(C)o4)ccc(C(F)(F)F)n23)cc1 [1-165] | 3 (Herbicidal ratio of 40% or more and less than 70%) | 4 (Herbicidal ratio of 70% or more and less than 90%) | 4 (Herbicidal ratio of 70% or more and less than 90%) | 0 (Herbicidal ratio of 5% or less (almost no effect)) | 2 (Herbicidal ratio of 20% or more and less than 40%) | 2 (Herbicidal ratio of 20% or more and less than 40%) | –
15 | COc1ccc(CN(C)c2nnc3c(C(=O)Nc4nnc(C)o4)ccc(C(F)(F)F)n23)cc1 [1-167] | 2 (Herbicidal ratio of 20% or more and less than 40%) | 0 (Herbicidal ratio of 5% or less (almost no effect)) | 4 (Herbicidal ratio of 70% or more and less than 90%) | – | – | – | –
